Measurements as given in patent publication US20200024278A1, “COMPOSITION COMPRISING ANTIBIOTIC COMPOUND AND AN HETEROCYCLIC COMPOUND AND THEIR USE IN PREVENTING OR TREATING BACTERIAL INFECTIONS” (MUTABILIS, priority 2016, published 2020).

Assays:
Assay in all cases: MIC, broth microdilution (CLSI), substance alone or ATB combined with compound at 4 or 8 μg/mL
Type in all cases: cell-based, A. baumannii
[1] = system: ABA 107292
Method: (§1) Compounds of the present invention were assessed against genotyped bacterial strains alone or in combination with an antibacterial. In the assays, MICs of said compounds or combination of antibiotics with fixed concentrations of said compounds (4 or 8 μg/mL) were determined by the broth microdilution method according to the Clinical Laboratory Standards Institute (CLSI-M7-A7). Briefly, compounds alone according to the invention were prepared in DMSO and spotted (2 μL each) on sterile polystyrene plates (Corning, 3788). Combinations of compounds and antibiotics dilutions were prepared in DMSO and spotted (1 μL each) on sterile polystyrene plates (Corning, 3788). Log phase bacterial suspensions were adjusted to a final density of 5·10^5 CFU/mL in cation-adjusted Mueller-Hinton broth (ca-MHB; Becton-Dickinson and Company) and added to each well (98 μL). Assays including Fosfomycin were supplemented with 25 μg/ml of Glucose-6-phosphate. Microplates were incubated for 16-20 h at 35° C. in ambient air. The MIC of the compounds was defined as the lowest concentration of said compounds that prevented bacterial growth as read by visual inspection. The MIC of ATB at each compound concentration was defined as the lowest concentration of ATB that prevented bacterial growth as read by visual inspection.

[2] = system: ABA 19606
Method: as §1

[3] = system: ABA UFR151
Method: as §1

[4] = system: ABA UFR152
Method: as §1

[5] = system: ABA UFR153
Method: as §1

[6] = system: ABA UFR154
Method: as §1

[7] = system: ABA UFR155
Method: as §1

## CC1(C)[C@H](C(=O)O)N2C(=O)C[C@H]2S1(=O)=O [SUL]
[1]; antibiotic alone
  MIC ATB alone: 64 µg/mL
[1]; with Example 1 @8 μg/ml
  MIC ATB combined with Example 1 @8 μg/ml: 4 µg/mL
[1]; with Example 3 @8 μg/ml
  MIC ATB combined with Example 3 @8 μg/ml: 2 µg/mL
[1]; with Example 6 @8 μg/ml
  MIC ATB combined with Example 6 @8 μg/ml: 8 µg/mL
[1]; with Example 9 @4 μg/ml
  MIC ATB combined with Example 9 @4 μg/ml: 8 µg/mL
[1]; with Example 10 @8 μg/ml
  MIC ATB combined with Example 10 @8 μg/ml: 4 µg/mL
[1]; with Example 11 @8 μg/ml
  MIC ATB combined with Example 11 @8 μg/ml: 32 µg/mL
[1]; with Example 12 @8 μg/ml
  MIC ATB combined with Example 12 @8 μg/ml: 2 µg/mL
[1]; with Example 15 @4 μg/ml
  MIC ATB combined with Example 15 @4 μg/ml: 4 µg/mL
[2]; antibiotic alone
  MIC ATB alone: 1 µg/mL
[2]; with Example 1 @8 μg/ml
  MIC ATB combined with Example 1 @8 μg/ml: 1 µg/mL
[2]; with Example 3 @8 μg/ml
  MIC ATB combined with Example 3 @8 μg/ml: <=0.25 μg/mL
[2]; with Example 6 @8 μg/ml
  MIC ATB combined with Example 6 @8 μg/ml: <=0.25 μg/mL
[2]; with Example 9 @4 μg/ml
  MIC ATB combined with Example 9 @4 μg/ml: <=0.25 μg/mL
[2]; with Example 10 @8 μg/ml
  MIC ATB combined with Example 10 @8 μg/ml: <=0.25 μg/mL
[2]; with Example 11 @8 μg/ml
  MIC ATB combined with Example 11 @8 μg/ml: <=0.25 μg/mL
[2]; with Example 12 @8 μg/ml
  MIC ATB combined with Example 12 @8 μg/ml: <=0.25 μg/mL
[2]; with Example 15 @4 μg/ml
  MIC ATB combined with Example 15 @4 μg/ml: <=0.25 μg/mL
[3]; antibiotic alone
  MIC ATB alone: 2 µg/mL
[3]; with Example 1 @8 μg/ml
  MIC ATB combined with Example 1 @8 μg/ml: 0.5 µg/mL
[3]; with Example 3 @8 μg/ml
  MIC ATB combined with Example 3 @8 μg/ml: <=0.25 μg/mL
[3]; with Example 6 @8 μg/ml
  MIC ATB combined with Example 6 @8 μg/ml: <0.25 µg/mL
[3]; with Example 9 @4 μg/ml
  MIC ATB combined with Example 9 @4 μg/ml: 0.5 µg/mL
[3]; with Example 10 @8 μg/ml
  MIC ATB combined with Example 10 @8 μg/ml: <=0.25 μg/mL
[3]; with Example 11 @8 μg/ml
  MIC ATB combined with Example 11 @8 μg/ml: <=0.25 μg/mL
[3]; with Example 12 @8 μg/ml
  MIC ATB combined with Example 12 @8 μg/ml: <=0.25 μg/mL
[3]; with Example 15 @4 μg/ml
  MIC ATB combined with Example 15 @4 μg/ml: <=0.25 μg/mL
[4]; antibiotic alone
  MIC ATB alone: 4 µg/mL
[4]; with Example 1 @8 μg/ml
  MIC ATB combined with Example 1 @8 μg/ml: 4 µg/mL
[4]; with Example 3 @8 μg/ml
  MIC ATB combined with Example 3 @8 μg/ml: 1 µg/mL
[4]; with Example 6 @8 μg/ml
  MIC ATB combined with Example 6 @8 μg/ml: 2 µg/mL
[4]; with Example 9 @4 μg/ml
  MIC ATB combined with Example 9 @4 μg/ml: 2 µg/mL
[4]; with Example 10 @8 μg/ml
  MIC ATB combined with Example 10 @8 μg/ml: 1 µg/mL
[4]; with Example 11 @8 μg/ml
  MIC ATB combined with Example 11 @8 μg/ml: 1 µg/mL
[4]; with Example 12 @8 μg/ml
  MIC ATB combined with Example 12 @8 μg/ml: 1 µg/mL
[4]; with Example 15 @4 μg/ml
  MIC ATB combined with Example 15 @4 μg/ml: 2 µg/mL
[5]; antibiotic alone
  MIC ATB alone: 4 µg/mL
[5]; with Example 1 @8 μg/ml
  MIC ATB combined with Example 1 @8 μg/ml: 1 µg/mL
[5]; with Example 3 @8 μg/ml
  MIC ATB combined with Example 3 @8 μg/ml: <=0.25 μg/mL
[5]; with Example 6 @8 μg/ml
  MIC ATB combined with Example 6 @8 μg/ml: <=0.25 μg/mL
[5]; with Example 9 @4 μg/ml
  MIC ATB combined with Example 9 @4 μg/ml: 0.5 µg/mL
[5]; with Example 10 @8 μg/ml
  MIC ATB combined with Example 10 @8 μg/ml: <=0.25 μg/mL
[5]; with Example 11 @8 μg/ml
  MIC ATB combined with Example 11 @8 μg/ml: <=0.25 μg/mL
[5]; with Example 12 @8 μg/ml
  MIC ATB combined with Example 12 @8 μg/ml: <=0.25 μg/mL
[5]; with Example 15 @4 μg/ml
  MIC ATB combined with Example 15 @4 μg/ml: <=0.25 μg/mL
[6]; antibiotic alone
  MIC ATB alone: 8 µg/mL
[6]; with Example 1 @8 μg/ml
  MIC ATB combined with Example 1 @8 μg/ml: 1 µg/mL
[6]; with Example 3 @8 μg/ml
  MIC ATB combined with Example 3 @8 μg/ml: 0.5 µg/mL
[6]; with Example 6 @8 μg/ml
  MIC ATB combined with Example 6 @8 μg/ml: <=0.25 μg/mL
[6]; with Example 9 @4 μg/ml
  MIC ATB combined with Example 9 @4 μg/ml: 0.5 µg/mL
[6]; with Example 10 @8 μg/ml
  MIC ATB combined with Example 10 @8 μg/ml: <=0.25 μg/mL
[6]; with Example 11 @8 μg/ml
  MIC ATB combined with Example 11 @8 μg/ml: <=0.25 μg/mL
[6]; with Example 12 @8 μg/ml
  MIC ATB combined with Example 12 @8 μg/ml: <=0.25 μg/mL
[6]; with Example 15 @4 μg/ml
  MIC ATB combined with Example 15 @4 μg/ml: 0.5 µg/mL
[7]; antibiotic alone
  MIC ATB alone: 16 µg/mL
[7]; with Example 1 @8 μg/ml
  MIC ATB combined with Example 1 @8 μg/ml: 4 µg/mL
[7]; with Example 3 @8 μg/ml
  MIC ATB combined with Example 3 @8 μg/ml: 1 µg/mL
[7]; with Example 6 @8 μg/ml
  MIC ATB combined with Example 6 @8 μg/ml: 2 µg/mL
